In ChEMBL document CHEMBL5149992, “Discovery, Optimization, and Evaluation of Quinazolinone Derivatives with Novel Linkers as Orally Efficacious Phosphoinositide-3-Kinase Delta Inhibitors for Treatment of Inflammatory Diseases” (J Med Chem, 2021):
The source made the active and inactive calls. The calls are words filed in the database; no cut-off is given here.

Key:
[1] = molecular target: T1, Phosphatidylinositol 4,5-bisphosphate 3-kinase catalytic subunit delta isoform (Homo sapiens) (UniProt O00329); test: Inhibition of PI3Kdelta (unknown origin) at 0.1 uM relative to control
T1 sequence (whole entry): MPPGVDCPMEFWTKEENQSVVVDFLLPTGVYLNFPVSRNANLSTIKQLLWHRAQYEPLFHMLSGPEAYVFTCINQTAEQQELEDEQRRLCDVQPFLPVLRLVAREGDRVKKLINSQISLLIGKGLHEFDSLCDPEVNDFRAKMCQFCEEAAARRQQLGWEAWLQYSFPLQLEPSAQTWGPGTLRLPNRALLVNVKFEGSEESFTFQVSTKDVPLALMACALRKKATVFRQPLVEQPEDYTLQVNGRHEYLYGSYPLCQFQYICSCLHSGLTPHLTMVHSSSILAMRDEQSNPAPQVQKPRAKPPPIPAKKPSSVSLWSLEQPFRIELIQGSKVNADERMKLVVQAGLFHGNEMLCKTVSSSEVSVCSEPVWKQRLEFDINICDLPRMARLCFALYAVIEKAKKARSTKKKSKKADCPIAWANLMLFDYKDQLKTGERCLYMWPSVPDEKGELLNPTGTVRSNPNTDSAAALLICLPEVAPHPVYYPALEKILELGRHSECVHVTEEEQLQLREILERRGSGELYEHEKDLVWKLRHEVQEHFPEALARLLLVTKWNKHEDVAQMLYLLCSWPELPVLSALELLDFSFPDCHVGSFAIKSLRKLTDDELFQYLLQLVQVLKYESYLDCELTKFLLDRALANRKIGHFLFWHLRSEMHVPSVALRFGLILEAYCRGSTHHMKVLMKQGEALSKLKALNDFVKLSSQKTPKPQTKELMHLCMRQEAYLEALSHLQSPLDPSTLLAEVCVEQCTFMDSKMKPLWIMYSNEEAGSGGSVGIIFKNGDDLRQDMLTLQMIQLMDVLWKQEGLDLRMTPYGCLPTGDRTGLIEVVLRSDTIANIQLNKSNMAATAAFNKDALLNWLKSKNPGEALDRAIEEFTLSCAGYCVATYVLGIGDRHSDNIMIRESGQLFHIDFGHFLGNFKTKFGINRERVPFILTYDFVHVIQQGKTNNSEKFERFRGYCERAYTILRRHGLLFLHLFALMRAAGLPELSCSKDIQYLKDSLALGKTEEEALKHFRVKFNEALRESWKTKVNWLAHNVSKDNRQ

[2] = molecular target: T1, Phosphatidylinositol 4,5-bisphosphate 3-kinase catalytic subunit delta isoform (Homo sapiens); test: Inhibition of PI3Kdelta (unknown origin) at 0.1 uM using phosphatidylinositol as substrate incubated for 30 mins in presence of ATP by HTRF based assay relative to control
[3] = molecular target: T1, Phosphatidylinositol 4,5-bisphosphate 3-kinase catalytic subunit delta isoform (Homo sapiens); test: Inhibition of PI3Kdelta (unknown origin) at 0.01 uM using phosphatidylinositol as substrate incubated for 30 mins in presence of ATP by HTRF based assay relative to control
[4] = molecular target: T2, Phosphatidylinositol 4,5-bisphosphate 3-kinase catalytic subunit delta isoform (Homo sapiens, UniProt O00329); test: Inhibition of PI3Kdelta (unknown origin)
T2 sequence (O00329 whole entry): T1 sequence (whole entry)

[5] = molecular target: Phosphatidylinositol 4,5-bisphosphate 3-kinase catalytic subunit gamma isoform (Homo sapiens, UniProt P48736); test: Inhibition of PI3Kgamma (unknown origin)
[6] = molecular target: T3, Phosphatidylinositol 4,5-bisphosphate 3-kinase catalytic subunit alpha isoform (Homo sapiens, UniProt P42336); test: Inhibition of PI3Kalpha (unknown origin)
[7] = molecular target: T4, Phosphatidylinositol 4,5-bisphosphate 3-kinase catalytic subunit beta isoform (Homo sapiens, UniProt P42338); test: Inhibition of PI3Kbeta (unknown origin)
[8] = Toxicity in mouse at 100 mg/kg, po; format: organism-based; settings: in vivo
[9] = human, microsomes, 10 µM
[10] = in vitro; settings: human, liver microsomes
[11] = molecular target: T3, Phosphatidylinositol 4,5-bisphosphate 3-kinase catalytic subunit alpha isoform; test: Inhibition of PI3Kalpha in human SK-OV-3 cells assessed as reduction in AKT phosphorylation at S473 residue incubated for 30 mins; format: cell-based
[12] = molecular target: T4, Phosphatidylinositol 4,5-bisphosphate 3-kinase catalytic subunit beta isoform; test: Inhibition of PI3Kbeta in human 786-0 cells assessed as reduction in AKT phosphorylation at S473 residue incubated for 30 mins; format: cell-based
[13] = molecular target: Phosphatidylinositol 4,5-bisphosphate 3-kinase catalytic subunit gamma isoform (Mus musculus, UniProt Q9JHG7); test: Inhibition of PI3Kgamma in c5a-stimulated mouse RAW264.7 cells assessed as reduction in AKT phosphorylation at S473 residue incubated for 30 mins; format: cell-based
[14] = molecular target: T2, Phosphatidylinositol 4,5-bisphosphate 3-kinase catalytic subunit delta isoform; test: Inhibition of PI3Kdelta in anti-IgM-stimulated human Raji cells assessed as reduction in AKT phosphorylation at S473 residue incubated for 30 mins; format: cell-based
[15] = molecular target: T2, Phosphatidylinositol 4,5-bisphosphate 3-kinase catalytic subunit delta isoform; test: Inhibition of PI3Kdelta in anti-IgM-stimulated human whole blood B cell degranulation incubated for 60 mins by flow cytometry; format: tissue-based
[16] = test system: H9c2; test: Cytotoxicity against rat H9c2 cells assessed as reduction in cell viability incubated for 72 hrs by CCK-8 assay; format: toxicity, cell-based; settings: h9c2, 72 h
[17] = test system: L929; test: Cytotoxicity against mouse L929 cells assessed as reduction in cell viability incubated for 72 hrs by CCK-8 assay; format: toxicity, cell-based; settings: l929, 72 h
[18] = test system: HEK293; test: Cytotoxicity against HEK293 cells assessed as reduction in cell viability incubated for 72 hrs by CCK-8 assay; format: toxicity, cell-based; settings: human, hek293, 72 h
[19] = test system: L02; test: Cytotoxicity against human L02 cells assessed as reduction in cell viability incubated for 72 hrs by CCK-8 assay; format: toxicity, cell-based; settings: l02, 72 h
[20] = Elimination half life in Sprague-Dawley rat at 5 mg/kg, po incubated for 5 to 24 hrs by LC-MS/MS analysis; format: ADME, organism-based; settings: in vivo, time 5-24 hrs, read-out: beta t1/2 (converted)
[21] = Elimination half life in Sprague-Dawley rat at 5 mg/kg, iv incubated for 5 to 24 hrs by LC-MS/MS analysis; format: ADME, organism-based; settings: in vivo, time 5-24 hrs, read-out: beta t1/2 (converted)
[22] = Volume of distribution at steady state in Sprague-Dawley rat at 5 mg/kg, po incubated for 5 to 24 hrs by LC-MS/MS analysis; format: ADME, organism-based; settings: in vivo, time 5-24 hrs
[23] = Volume of distribution at steady state in Sprague-Dawley rat at 5 mg/kg, iv incubated for 5 to 24 hrs by LC-MS/MS analysis; format: ADME, organism-based; settings: in vivo, time 5-24 hrs, read-out: Vdss
[24] = Tmax in Sprague-Dawley rat at 5 mg/kg, po incubated for 5 to 24 hrs by LC-MS/MS analysis; format: ADME, organism-based; settings: in vivo, time 5-24 hrs
[25] = Tmax in Sprague-Dawley rat at 5 mg/kg, iv incubated for 5 to 24 hrs by LC-MS/MS analysis; format: ADME, organism-based; settings: in vivo, time 5-24 hrs
[26] = MRT in Sprague-Dawley rat at 5 mg/kg, po incubated for 5 to 24 hrs by LC-MS/MS analysis; format: ADME, organism-based; settings: in vivo, time 5-24 hrs
[27] = MRT in Sprague-Dawley rat at 5 mg/kg, iv incubated for 5 to 24 hrs by LC-MS/MS analysis; format: ADME, organism-based; settings: in vivo, time 5-24 hrs
[28] = AUC in Sprague-Dawley rat at 5 mg/kg, po incubated for 5 to 24 hrs by LC-MS/MS analysis; format: ADME, organism-based; design: dose 5 mg/kg, time upper 24 hrs, time lower 5 hrs, route po; settings: in vivo
[29] = AUC in Sprague-Dawley rat at 5 mg/kg, iv incubated for 5 to 24 hrs by LC-MS/MS analysis; format: ADME, organism-based; design: time 5-24 hrs, dose 5 mg/kg, route iv; settings: in vivo
[30] = Oral bioavailability Sprague-Dawley rat at 5 mg/kg incubated for 5 to 24 hrs by LC-MS/MS analysis; format: ADME, organism-based; settings: in vivo, time 5-24 hrs
[31] = test system: Mus musculus; test: Antiarthritic activity in collagen-induced rheumatoid arthritis po dosed DBA1/J mouse model assessed as reduction in disease severity measured once daily for 24 to 27 days; format: functional, organism-based; settings: dose 5-20 mg/kg, time 24-27 day, DDE = dose-dependent effect
[32] = test system: Mus musculus; test: Antiarthritic activity against collagen-induced arthritis DBA1/J mouse model assessed as paw swelling of forelimb at 5 to 20 mg/kg, po measured on day 27; format: functional, organism-based; settings: dose 5-20 mg/kg, time 27.0 day
[33] = test system: Mus musculus; test: Antiarthritic activity against collagen-induced arthritis DBA1/J mouse model assessed as paw swelling of hindlimb at 5 to 20 mg/kg, po measured on day 27; format: functional, organism-based; settings: dose 5-20 mg/kg, time 27.0 day
[34] = test system: Mus musculus; test: Antiarthritic activity against collagen-induced arthritis DBA1/J mouse model assessed as signs of inflammation at 20 mg/kg, po measured after 24 hrs by H and E staining based analysis; format: functional, organism-based
[35] = test system: Mus musculus; test: Antiarthritic activity against collagen-induced arthritis DBA1/J mouse model assessed as bone erosion at 20 mg/kg, po measured after 24 hrs by H and E staining based analysis; format: functional, organism-based
[36] = test system: Mus musculus; test: Antiarthritic activity against collagen-induced arthritis DBA1/J mouse model assessed as destruction of cartilage at 20 mg/kg, po measured after 24 hrs by Safranin-O staining based microscopic analysis; format: functional, organism-based
[37] = test system: Mus musculus; test: Antiarthritic activity in collagen-induced rheumatoid arthritis DBA1/J mouse model assessed as reduction in disease severity at 20 mg/kg, po qd measured once daily for 24 to 27 days; format: functional, organism-based; settings: time 24-27 day

T3 sequence (P42336 whole entry, canonical isoform): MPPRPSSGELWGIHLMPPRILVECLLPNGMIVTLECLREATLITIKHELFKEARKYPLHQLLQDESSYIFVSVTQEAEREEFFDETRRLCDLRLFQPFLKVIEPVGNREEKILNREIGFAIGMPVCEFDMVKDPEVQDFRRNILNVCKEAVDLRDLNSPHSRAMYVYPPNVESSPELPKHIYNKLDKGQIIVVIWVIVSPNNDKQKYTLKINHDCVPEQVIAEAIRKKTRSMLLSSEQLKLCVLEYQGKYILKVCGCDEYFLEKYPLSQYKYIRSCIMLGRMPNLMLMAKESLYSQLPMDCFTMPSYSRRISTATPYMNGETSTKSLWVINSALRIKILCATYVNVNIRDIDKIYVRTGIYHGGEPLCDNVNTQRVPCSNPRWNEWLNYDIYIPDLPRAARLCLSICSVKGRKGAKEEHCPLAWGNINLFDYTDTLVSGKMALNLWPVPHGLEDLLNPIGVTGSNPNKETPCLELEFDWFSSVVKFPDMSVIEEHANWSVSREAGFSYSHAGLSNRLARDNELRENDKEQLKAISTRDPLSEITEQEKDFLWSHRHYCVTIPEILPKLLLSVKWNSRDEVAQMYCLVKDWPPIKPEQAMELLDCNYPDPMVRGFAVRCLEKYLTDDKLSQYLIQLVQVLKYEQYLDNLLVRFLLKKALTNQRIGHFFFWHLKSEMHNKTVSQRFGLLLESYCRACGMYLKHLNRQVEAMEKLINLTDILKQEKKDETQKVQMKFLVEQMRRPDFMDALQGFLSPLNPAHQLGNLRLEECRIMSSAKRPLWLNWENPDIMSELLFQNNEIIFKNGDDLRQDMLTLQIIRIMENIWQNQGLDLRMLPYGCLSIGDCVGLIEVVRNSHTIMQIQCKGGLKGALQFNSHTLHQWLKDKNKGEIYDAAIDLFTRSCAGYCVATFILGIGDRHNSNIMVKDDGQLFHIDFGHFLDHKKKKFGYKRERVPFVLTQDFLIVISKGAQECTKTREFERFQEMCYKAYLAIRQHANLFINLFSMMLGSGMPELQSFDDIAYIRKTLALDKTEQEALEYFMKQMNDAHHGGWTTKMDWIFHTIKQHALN
Chain of Phosphatidylinositol 4,5-bisphosphate 3-kinase catalytic subunit gamma isoform (Homo sapiens, UniProt P48736) (P48736 whole entry, canonical isoform): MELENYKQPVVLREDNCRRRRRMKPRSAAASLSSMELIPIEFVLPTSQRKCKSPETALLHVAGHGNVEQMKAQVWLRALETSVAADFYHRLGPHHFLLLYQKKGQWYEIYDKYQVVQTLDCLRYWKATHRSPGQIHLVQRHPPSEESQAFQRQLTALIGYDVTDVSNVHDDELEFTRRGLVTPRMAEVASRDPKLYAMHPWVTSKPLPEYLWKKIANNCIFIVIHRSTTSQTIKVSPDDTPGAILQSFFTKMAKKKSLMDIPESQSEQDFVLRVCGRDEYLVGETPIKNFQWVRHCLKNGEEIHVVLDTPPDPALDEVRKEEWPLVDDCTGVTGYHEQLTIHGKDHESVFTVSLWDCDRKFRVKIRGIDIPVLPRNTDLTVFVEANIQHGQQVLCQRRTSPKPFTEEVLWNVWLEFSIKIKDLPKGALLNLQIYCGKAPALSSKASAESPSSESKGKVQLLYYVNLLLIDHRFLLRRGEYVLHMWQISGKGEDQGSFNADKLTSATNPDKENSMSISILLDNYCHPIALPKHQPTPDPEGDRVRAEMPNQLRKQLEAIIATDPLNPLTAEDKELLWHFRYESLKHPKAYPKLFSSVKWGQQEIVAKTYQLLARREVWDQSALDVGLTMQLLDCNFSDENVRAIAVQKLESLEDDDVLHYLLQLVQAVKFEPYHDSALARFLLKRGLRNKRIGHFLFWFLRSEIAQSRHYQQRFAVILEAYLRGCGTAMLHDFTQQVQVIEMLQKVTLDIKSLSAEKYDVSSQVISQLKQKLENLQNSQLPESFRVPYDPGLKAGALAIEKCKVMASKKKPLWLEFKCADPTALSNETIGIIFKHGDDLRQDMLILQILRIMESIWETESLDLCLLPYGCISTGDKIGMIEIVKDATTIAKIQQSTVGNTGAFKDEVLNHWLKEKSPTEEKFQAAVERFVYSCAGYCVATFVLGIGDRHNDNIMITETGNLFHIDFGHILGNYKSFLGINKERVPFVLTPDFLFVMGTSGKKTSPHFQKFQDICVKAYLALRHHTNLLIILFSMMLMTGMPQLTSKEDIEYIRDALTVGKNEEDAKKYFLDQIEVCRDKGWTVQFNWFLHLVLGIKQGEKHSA
T4 sequence (P42338 whole entry, canonical isoform): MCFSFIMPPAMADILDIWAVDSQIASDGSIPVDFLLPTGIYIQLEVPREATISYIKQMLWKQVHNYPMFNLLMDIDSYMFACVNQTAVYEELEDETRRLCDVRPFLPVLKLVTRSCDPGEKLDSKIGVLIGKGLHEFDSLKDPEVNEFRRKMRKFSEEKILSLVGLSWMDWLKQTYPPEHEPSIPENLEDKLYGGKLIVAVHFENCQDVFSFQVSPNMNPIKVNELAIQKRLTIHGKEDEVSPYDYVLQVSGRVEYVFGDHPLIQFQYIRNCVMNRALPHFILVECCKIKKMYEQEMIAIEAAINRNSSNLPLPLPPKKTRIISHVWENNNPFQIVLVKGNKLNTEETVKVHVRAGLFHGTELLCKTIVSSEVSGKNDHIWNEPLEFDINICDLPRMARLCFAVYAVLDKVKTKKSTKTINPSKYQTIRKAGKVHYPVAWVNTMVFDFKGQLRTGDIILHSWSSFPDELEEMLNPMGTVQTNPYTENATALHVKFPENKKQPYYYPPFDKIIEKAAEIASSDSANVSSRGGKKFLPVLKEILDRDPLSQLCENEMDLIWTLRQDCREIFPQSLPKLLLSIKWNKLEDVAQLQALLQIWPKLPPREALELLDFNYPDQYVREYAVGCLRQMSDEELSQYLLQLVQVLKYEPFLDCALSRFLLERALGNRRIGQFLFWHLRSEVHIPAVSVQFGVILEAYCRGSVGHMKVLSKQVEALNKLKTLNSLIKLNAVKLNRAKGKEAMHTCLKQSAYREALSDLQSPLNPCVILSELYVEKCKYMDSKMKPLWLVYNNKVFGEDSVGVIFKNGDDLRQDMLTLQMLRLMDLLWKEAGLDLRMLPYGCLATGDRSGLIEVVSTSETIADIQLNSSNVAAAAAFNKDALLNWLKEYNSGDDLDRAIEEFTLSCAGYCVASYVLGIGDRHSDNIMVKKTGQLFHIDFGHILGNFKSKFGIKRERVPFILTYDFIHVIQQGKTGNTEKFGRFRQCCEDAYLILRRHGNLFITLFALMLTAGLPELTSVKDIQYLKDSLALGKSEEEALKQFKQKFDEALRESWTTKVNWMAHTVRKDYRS
Chain of Phosphatidylinositol 4,5-bisphosphate 3-kinase catalytic subunit gamma isoform (Mus musculus, UniProt Q9JHG7) (Q9JHG7 whole entry, canonical isoform): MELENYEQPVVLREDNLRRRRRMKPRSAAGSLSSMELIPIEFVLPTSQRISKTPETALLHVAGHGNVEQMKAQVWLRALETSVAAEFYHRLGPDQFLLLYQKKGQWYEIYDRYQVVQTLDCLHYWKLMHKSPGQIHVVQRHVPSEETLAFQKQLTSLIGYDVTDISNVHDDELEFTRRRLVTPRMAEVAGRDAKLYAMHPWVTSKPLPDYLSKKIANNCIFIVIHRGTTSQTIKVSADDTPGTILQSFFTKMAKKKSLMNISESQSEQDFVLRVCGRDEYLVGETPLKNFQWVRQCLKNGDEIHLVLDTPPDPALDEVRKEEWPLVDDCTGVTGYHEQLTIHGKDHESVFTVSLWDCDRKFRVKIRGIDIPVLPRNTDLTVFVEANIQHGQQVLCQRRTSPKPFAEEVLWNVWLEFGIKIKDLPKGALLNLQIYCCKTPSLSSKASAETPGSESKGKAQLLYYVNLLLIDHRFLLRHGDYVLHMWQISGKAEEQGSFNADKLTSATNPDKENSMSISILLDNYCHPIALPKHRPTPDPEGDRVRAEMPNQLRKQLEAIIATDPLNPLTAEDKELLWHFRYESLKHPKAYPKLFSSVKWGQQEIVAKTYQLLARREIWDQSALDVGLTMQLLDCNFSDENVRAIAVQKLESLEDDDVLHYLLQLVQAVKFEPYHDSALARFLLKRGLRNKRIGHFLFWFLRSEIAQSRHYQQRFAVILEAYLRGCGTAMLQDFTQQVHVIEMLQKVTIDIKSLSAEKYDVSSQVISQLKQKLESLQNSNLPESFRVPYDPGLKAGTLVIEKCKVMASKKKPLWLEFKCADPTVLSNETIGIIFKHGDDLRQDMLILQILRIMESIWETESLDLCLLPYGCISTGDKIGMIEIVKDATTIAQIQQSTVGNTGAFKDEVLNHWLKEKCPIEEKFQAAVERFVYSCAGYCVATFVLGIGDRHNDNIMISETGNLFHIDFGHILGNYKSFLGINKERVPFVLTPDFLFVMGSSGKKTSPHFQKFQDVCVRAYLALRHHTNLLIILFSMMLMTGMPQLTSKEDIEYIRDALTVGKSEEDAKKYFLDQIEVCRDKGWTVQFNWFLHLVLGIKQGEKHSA

## N#Cc1c(N)ncnc1N1[C@H](c2nc3cccc(Cl)c3c(=O)n2-c2cccc(OC(F)(F)F)c2)C[C@@H]2CCCC[C@@H]21
[1]
  inhibition: 5%

## N#Cc1c(N)ncnc1N1CC(F)(F)C[C@H]1c1nc2cccc(Cl)c2c(=O)n1-c1ccccc1
[2]
  inhibition: 60%
[3]
  inhibition: 15%
[4]
  IC50: 33 nM
[5]
  IC50: > 1000 nM
[6]
  IC50: > 1000 nM
[7]
  IC50: > 1000 nM
[8]
  Activity: Toxic
[9]
  CLH: 8.2 mL/min/g
[10]
  half-life at 60 h, 10 µM: 2.82 h

## C[C@H]1CC[C@@H](c2nc3cccc(Cl)c3c(=O)n2-c2cccc(F)c2)N1c1ncnc2[nH]cnc12
[4]
  IC50: 14 nM
[5]
  IC50: 267 nM
[6]
  IC50: 4430 nM
[7]
  IC50: 375 nM
[11]
  IC50: 4360 nM
[12]
  IC50: 943 nM
[13]
  IC50: 571 nM
[14]
  IC50: 24.7 nM
[15]
  IC50: 100 nM
[16]
  Activity: Non-Toxic
[17]
  Activity: Non-Toxic
[18]
  Activity: Non-Toxic
[19]
  Activity: Non-Toxic
[20]
  half-life: 2.06 h
[21]
  half-life: 2 h
[22]
  Vdss: 9.1 L/kg
[23]
  Vd: 7.16 L/kg
[24]
  Tmax: 4.67 h
[25]
  Tmax: 4.8 min
[26]
  MRT: 5.96 h
[27]
  MRT: 2.53 h
[28]
  AUC: 4897.74 ng·h/mL
[29]
  AUC: 2110.52 ng·h/mL
[30]
  F: 89.9%
[31]
  Activity: Dde
[32]
  Activity: Active
[33]
  Activity: Active
[34]
  Activity: Active
[35]
  Activity: Active
[36]
  Activity: Active
[9]
  CLH: 5.2 mL/min/g
[10]
  half-life at 60 h, 10 µM: 4.44 h

## CC[C@H](Nc1ncnc2[nH]cnc12)c1nc2cccc(F)c2c(=O)n1-c1ccccc1 [IDELALISIB]
[13]
  IC50: 1300 nM
[37]
  Activity: Active

## N#Cc1c(N)ncnc1N1[C@H](c2nc3cccc(Cl)c3c(=O)n2-c2ccccc2)C[C@@H]2CCCC[C@@H]21
[2]
  inhibition: 43%
[3]
  inhibition: 10%
[4]
  IC50: 90 nM
[5]
  IC50: > 1000 nM
[6]
  IC50: > 1000 nM
[7]
  IC50: > 1000 nM
[8]
  Activity: Non-Toxic
[9]
  CLH: 19.8 mL/min/g
[10]
  half-life at 60 h, 10 µM: 1.17 h
